Results on 15 compounds are retold here after patent US20230365537A1, “POLO LIKE KINASE 4 INHIBITORS” (ORIC Pharmaceuticals, Inc., priority 2021, published 2023).

Test [1] concerns the target human recombinant Aurora A (Homo sapiens (Human), UniProt O14965). Briefly: Aurora A Kinase Biochemical Assay (ADP-Glo). As to conditions: ratio of Aurora A IC50 to PLK4 IC50 (selectivity). Background: ADP-Glo turns the ADP formed in a reaction into a luminescent signal.
Another test concerns the target human recombinant PLK4 (Homo sapiens (Human), UniProt O00444). Description: PLK4 Biochemical Assay (ADP-Glo). As to conditions: 0.5 nM PLK4, 8.0 µM ATP, 4.7 µM MBP, 6 hours at RT. The gist of the method: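 Luminescent ADP-Glo detection quantified ADP production, with ATP depletion for 40 min and detection for 30 min at room temperature. Compound and PLK4 (1.0 nM stock addition) were preincubated 15 min in HEPES pH 7.5 buffer containing MgCl2, EGTA, DTT, Brij-35 and BSA. IC50 values were obtained by four-parameter nonlinear regression.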

Test [2] has as its target human recombinant Aurora B (Homo sapiens (Human), UniProt Q96GD4). Description: Aurora B Kinase Biochemical Assay (ADP-Glo). Conditions: ratio of Aurora B IC50 to PLK4 IC50 (selectivity). The gist of the method: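 IC50 derived by four-parameter nonlinear fit of ADP-Glo luminescence (ADP produced). Compound was preincubated 15 min at RT with 20 nM recombinant human Aurora B, in 50 mM HEPES pH 7.5, 10 mM MgCl2, 1 mM EGTA, 1 mM DTT, 0.01% Brij-35/BSA.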

A further test deals with CHP-134 cells. Briefly: CHP134 CellTiter-Glo (CTG) Assay. It counts as cell-based. Conditions: Homo sapiens, CHP-134, 120 h, 5 days, viable cells by CellTiter-Glo. The protocol:
Cells were seeded (200 cells/well) in 384-well plates for 16 hours. On day two, nine serial 1:3 compound dilutions were made in DMSO in a 96-well plate. The compounds were then further diluted into growth media using a BRAVO robot (Agilent, Santa Clara, CA). The diluted compounds were then added to quadruplicate wells in the 384-well cell plate and incubated at 37° C. and 5% CO2. After 5 days, relative numbers of viable cells were measured by luminescence using CellTiter-Glo® (Promega) according to the manufacturer’s instructions and read on a SPARK Multimode Microplate Reader (Tecan, Mannedorf Switzerland). The IC50 calculations for the values reported in Table 2 were carried out using Prism 6.0 software (GraphPad, San Diego).

pIC50: −log10 of the molar value.

Sequence of human recombinant PLK4 (O00444 whole entry): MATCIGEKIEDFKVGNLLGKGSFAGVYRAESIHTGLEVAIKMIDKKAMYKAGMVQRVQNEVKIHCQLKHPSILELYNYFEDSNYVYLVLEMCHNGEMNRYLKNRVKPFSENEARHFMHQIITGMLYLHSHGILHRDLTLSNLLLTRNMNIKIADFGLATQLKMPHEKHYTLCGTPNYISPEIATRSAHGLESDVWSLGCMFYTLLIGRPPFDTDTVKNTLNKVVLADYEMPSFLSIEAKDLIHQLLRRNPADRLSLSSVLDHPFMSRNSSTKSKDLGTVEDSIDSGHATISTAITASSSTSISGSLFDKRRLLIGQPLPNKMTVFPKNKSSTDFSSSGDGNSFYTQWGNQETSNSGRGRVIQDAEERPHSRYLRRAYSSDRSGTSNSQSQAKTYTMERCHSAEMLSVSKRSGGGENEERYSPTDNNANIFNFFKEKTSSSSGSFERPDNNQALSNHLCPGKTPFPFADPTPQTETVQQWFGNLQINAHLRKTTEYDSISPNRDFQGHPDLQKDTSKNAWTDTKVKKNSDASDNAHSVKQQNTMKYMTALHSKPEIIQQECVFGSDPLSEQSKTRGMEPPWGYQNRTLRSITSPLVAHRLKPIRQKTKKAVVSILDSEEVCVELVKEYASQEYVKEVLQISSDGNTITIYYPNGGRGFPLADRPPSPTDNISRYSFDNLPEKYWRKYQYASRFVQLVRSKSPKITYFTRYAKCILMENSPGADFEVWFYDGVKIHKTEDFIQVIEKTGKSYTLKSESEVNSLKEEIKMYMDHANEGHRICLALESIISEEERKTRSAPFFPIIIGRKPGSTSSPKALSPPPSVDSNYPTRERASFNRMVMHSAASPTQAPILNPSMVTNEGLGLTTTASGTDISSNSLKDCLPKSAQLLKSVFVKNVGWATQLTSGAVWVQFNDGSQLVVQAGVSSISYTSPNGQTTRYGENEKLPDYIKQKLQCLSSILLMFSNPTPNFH
Sequence of human recombinant Aurora A (O14965 whole entry): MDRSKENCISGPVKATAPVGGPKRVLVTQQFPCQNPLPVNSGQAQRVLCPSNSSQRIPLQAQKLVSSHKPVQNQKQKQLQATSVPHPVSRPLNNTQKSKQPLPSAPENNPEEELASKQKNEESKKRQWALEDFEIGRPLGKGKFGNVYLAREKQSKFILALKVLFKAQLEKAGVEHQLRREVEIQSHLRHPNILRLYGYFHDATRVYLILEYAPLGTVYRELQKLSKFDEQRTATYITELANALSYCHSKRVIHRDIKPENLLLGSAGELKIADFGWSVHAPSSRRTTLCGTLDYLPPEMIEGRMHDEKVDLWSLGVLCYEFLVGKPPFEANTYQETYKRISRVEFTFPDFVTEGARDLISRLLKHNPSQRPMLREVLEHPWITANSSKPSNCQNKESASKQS
Sequence of human recombinant Aurora B (Q96GD4 whole entry): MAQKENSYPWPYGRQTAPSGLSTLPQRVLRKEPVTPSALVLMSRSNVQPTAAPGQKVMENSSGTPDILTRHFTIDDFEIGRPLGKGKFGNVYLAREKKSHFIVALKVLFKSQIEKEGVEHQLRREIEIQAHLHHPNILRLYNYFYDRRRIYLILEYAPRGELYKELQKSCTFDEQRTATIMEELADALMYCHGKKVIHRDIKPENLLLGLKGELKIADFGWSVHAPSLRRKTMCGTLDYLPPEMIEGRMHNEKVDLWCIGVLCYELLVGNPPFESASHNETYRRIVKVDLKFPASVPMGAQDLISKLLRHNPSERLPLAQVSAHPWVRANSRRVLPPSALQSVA

A word on the pIC50: it is −log10 of the IC50, conventionally taken in molar units. As to `COc1ccc2c(c1)[C@]1(C[C@H]1c1ccc3c(Nc4nc(CCO)nc(N5CCOCC5)c4OC)n[nH]c3c1)C(=O)N2` [Example 68, (1R,2S)-2-(3-{[2-(2-hydroxyethyl)-5-methoxy-6-(morpholin-4-yl)pyrimidin-4-yl]amino}-1H-indazol-6-yl)-5′-methoxyspiro[cyclopropane-1,3′-indol]-2′(1′H)-one], the “[Aurora A IC50 (nM)]/[PLK4 IC50 (nM)]” value in test [1] amounted to 4761.518. The figures for the negative-log IC50 (pIC50) on human recombinant PLK4 and with CHP-134 cells were 8.13 and 5.61, respectively. In addition, the “[Aurora B IC50 (nM)]/[PLK4 IC50 (nM)]” value in test [2] was 1347.967.

On to `COc1ccc2c(c1)[C@]1(C[C@H]1c1ccc3c(Nc4nc(C5CC5)nc(N5CCS(=O)(=O)CC5)c4OC)n[nH]c3c1)C(=O)N2` [Example 69, 4-[2-cyclopropyl-5-methoxy-6-({6-[(1R,2S)-5′-methoxy-2′-oxo-1’,2′-dihydrospiro[cyclopropane-1,3′-indol]-2-yl]-1H-indazol-3-yl}amino)pyrimidin-4-yl]-1λ6-thiomorpholine-1,1-dione], for which the “[Aurora A IC50 (nM)]/[PLK4 IC50 (nM)]” value in test [1] was 1785.978. Further, the pIC50 at human recombinant PLK4 is 8.53; in the test with CHP-134 cells it was 6.16. For the same compound, in test [2], the “[Aurora B IC50 (nM)]/[PLK4 IC50 (nM)]” value came to 480.7112.

In the case of `COc1ccc2c(c1)[C@]1(C[C@H]1c1ccc3c(Nc4nc(C5CC5)nc(N5CCS(=O)(=O)CC5)c4Cl)n[nH]c3c1)C(=O)N2` [Example 70, 4-[5-chloro-2-cyclopropyl-6-({6-[(1R,2S)-5′-methoxy-2′-oxo-1′,2′-dihydrospiro[cyclopropan-1,3′-indol]-2-yl]-1H-indazol-3-yl}amino)pyrimidin-4-y1]-1λ6-thiomorpholine-1,1-dione], the “[Aurora A IC50 (nM)]/[PLK4 IC50 (nM)]” value in test [1] stood at 1376.93. Moreover, the pIC50 on human recombinant PLK4 is 8.96; in the test with CHP-134 cells, 7.10. In test [2], the “[Aurora B IC50 (nM)]/[PLK4 IC50 (nM)]” value amounted to 512.7157.

Consider `COc1ccc2c(c1)[C@]1(C[C@H]1c1ccc3c(Nc4nc(C)cnc4OC)n[nH]c3c1)C(=O)N2` [Example 71, (1R,2S)-5′-methoxy-2-{3-[(3-methoxy-6-methylpyrazin-2-yl)amino]-1H-indazol-6-yl}spiro[cyclopropane-1,3′-indol]-2′(1′H)-one], for which the “[Aurora A IC50 (nM)]/[PLK4 IC50 (nM)]” value in test [1] stood at 420.9667. The values for the pIC50 on human recombinant PLK4 and in the test with CHP-134 cells were 8.51 and 6.00, respectively. In addition, the “[Aurora B IC50 (nM)]/[PLK4 IC50 (nM)]” value in test [2] was determined as 38.67.

With `COc1ccc2c(c1)[C@]1(C[C@H]1c1ccc3c(Nc4nc(C)nc(N5CC(O)C5)c4Cl)n[nH]c3c1)C(=O)N2` [Example 72, (1R,2S)-2-(3-{[5-chloro-6-(3-hydroxyazetidin-1-yl)-2-methylpyrimidin-4-yl]amino)-1H-indazol-6-yl)-5′-methoxyspiro[cyclopropane-1,3′-indol]-2′(1′H)-one], the “[Aurora A IC50 (nM)]/[PLK4 IC50 (nM)]” value in test [1] is given as 2006.018. For the same compound, the pIC50 is 9.00 at human recombinant PLK4 and 7.37 with CHP-134 cells. The “[Aurora B IC50 (nM)]/[PLK4 IC50 (nM)]” value in test [2] was 405.2156.

For the compound `COc1ccc2c(c1)[C@]1(C[C@H]1c1ccc3c(Nc4nc(C)nc(N5CC(O)C5)c4OC)n[nH]c3c1)C(=O)N2` [Example 73, (1R,2S)-2-(3-{[6-(3-hydroxyazetidin-l-yl)-5-methoxy-2-methylpyrimidin-4-yl]amino}-1H-indazol-6-yl)-5′-methoxyspiro[cyclopropane-1,3′-indol]-2′(1′H)-one], in test [1], the “[Aurora A IC50 (nM)]/[PLK4 IC50 (nM)]” value stood at 3290.277. Moreover, the values for the pIC50 on human recombinant PLK4 and in the test with CHP-134 cells were 8.15 and 5.00, respectively. Further, the “[Aurora B IC50 (nM)]/[PLK4 IC50 (nM)]” value in test [2] turned out to be 346.7708.

For `COc1ccc2c(c1)[C@]1(C[C@H]1c1ccc3c(Nc4nc(C5CC5)nc(N5CC(O)C5)c4Cl)n[nH]c3c1)C(=O)N2` [Example 76, (1R,2S)-2-(3-{[5-chloro-2-cyclopropyl-6-(3-hydroxyazetidin-1-yl)pyrimidin-4-yl]amino)-1H-indazol-6-yl)-5′-methoxyspiro[cyclopropane-1,3′-indol]-2′(1′H)-one], in test [1], the “[Aurora A IC50 (nM)]/[PLK4 IC50 (nM)]” value is recorded as 3304.147. Also, the results for the pIC50 at human recombinant PLK4 and in the test with CHP-134 cells were 9.36 and 7.03, respectively. The “[Aurora B IC50 (nM)]/[PLK4 IC50 (nM)]” value in test [2] is on record as 535.4839.

On to `COc1ccc2c(c1)[C@]1(C[C@H]1c1ccc3c(Nc4nc(C5CC5)nc(N5C[C@@H](C)O[C@@H](C)C5)c4OC)n[nH]c3c1)C(=O)N2` [Example 77, (1R,2S)-2-[3-({2-cyclopropyl-6-[(2R,6S)-2,6-dimethylmorpholin-4-yl]-5-methoxypyrimidin-4-yl}amino)-1H-indazol-6-yl]-5′-methoxyspiro[cydopropane-1,3′-indol]-2′(1′H)-one], for which the “[Aurora A IC50 (nM)]/[PLK4 IC50 (nM)]” value in test [1] came to 6738.759. Moreover, the results for the pIC50 at human recombinant PLK4 and with CHP-134 cells were 8.76 and 6.14, respectively. The “[Aurora B IC50 (nM)]/[PLK4 IC50 (nM)]” value in test [2] was found to be 1577.689.

On to `COc1ccc2c(c1)[C@]1(C[C@H]1c1ccc3c(Nc4nc(C(C)C)nc(N5CCS(=O)(=O)CC5)c4Cl)n[nH]c3c1)C(=O)N2` [Example 78, (1R,2S)-2-(3-((5-chloro-6-(1,1-dioxidothiomorpholino)-2-isopropylpyrimidin4-yl)amino)-1H-indazol-6-yl)-5′-methoxyspiro[cyclopropane-1,3′-indolin]-2′-one], for which the “[Aurora A IC50 (nM)]/[PLK4 IC50 (nM)]” value in test [1] is listed as 5660. For the same compound, the pIC50 at human recombinant PLK4 is 9.46; in the test with CHP-134 cells it was 7.21. Further, the “[Aurora B IC50 (nM)]/[PLK4 IC50 (nM)]” value in test [2] was 1778.857.

Consider `COc1ccc2c(c1)[C@]1(C[C@H]1c1ccc3c(Nc4nc(C5CC5)cnc4OC)n[nH]c3c1)C(=O)N2.O=C(O)C(F)(F)F` [Example 80, (1R,2S)-2-{3-[(6-cyclopropyl-3-methorypyrazin-2-yl)amino]-1H-indazol-yl}-5′-metboxyspiro[cyclopropane-1,3′-indol]-2′(1′H)-one], for which the “[Aurora A IC50 (nM)]/[PLK4 IC50 (nM)]” value in test [1] is listed as 346.5116. Further, the results for the pIC50 at human recombinant PLK4 and in the test on CHP-134 cells were 8.63 and 6.53, respectively. Besides, the “[Aurora B IC50 (nM)]/[PLK4 IC50 (nM)]” value in test [2] is recorded as 54.12.

With `COc1ccc2c(c1)[C@]1(C[C@H]1c1ccc3c(Nc4nc(C5CC5)nc(N5CC(O)C5)c4OC)n[nH]c3c1)C(=O)N2.O=C(O)C(F)(F)F` [Example 81, (1R,2S)-2-(3-{[2-cyclopropyl-6-(3-hydroxyazetidin-1-yl)-5-methoxypyrimidin-4-yl]amino}-1H-indazol-6-yl)-5′-methoxyspiro[cyclopropane-1,3′-indol]-2′(1′H)-one], in test [1], the “[Aurora A IC50 (nM)]/[PLK4 IC50 (nM)]” value came out at 1478.393. In addition, the pIC50 at human recombinant PLK4 is 8.44; in the test with CHP-134 cells it was 6.02. The “[Aurora B IC50 (nM)]/[PLK4 IC50 (nM)]” value in test [2] is listed as 220.4239.

Consider `COc1ccc2c(c1)[C@]1(C[C@H]1c1ccc3c(Nc4nc(C(C)C)cnc4OC)n[nH]c3c1)C(=O)N2` [Example 83, (1R,2S)-5′-methoxy-2-(3-{[3-methoxy-6-(propan-2-yl)pyrazin-2-yl]amino}-1H-indazol-6-yl)spiro[cyclopropane-1,3′-indol]-2′(1′H)-one], for which the “[Aurora A IC50 (nM)]/[PLK4 IC50 (nM)]” value in test [1] is 908.4004. The figures for the pIC50 at human recombinant PLK4 and with CHP-134 cells were 8.65 and 6.56, respectively. Moreover, the “[Aurora B IC50 (nM)]/[PLK4 IC50 (nM)]” value in test [2] is on record as 333.3333.

For `COc1ccc2c(c1)[C@]1(C[C@H]1c1ccc3c(Nc4nc(C(C)C)nc(N5CCS(=O)(=O)CC5)c4OC)n[nH]c3c1)C(=O)N2` [Example 84, (1R,2S)-2-(3-((6-(1,1-dioxidothiomorpholino)-2-isopropyl-5-methoxypyrimidin-4-yl)amino)-1H-indazol-6-yl)-5′-methoxyspiro[cyclopropane-1,3′-indolin]-2′-one], the “[Aurora A IC50 (nM)]/[PLK4 IC50 (nM)]” value in test [1] was determined as 39123.63. In addition, the pIC50 at human recombinant PLK4 is 8.89; with CHP-134 cells it was 6.40. For the same compound, in test [2], the “[Aurora B IC50 (nM)]/[PLK4 IC50 (nM)]” value is recorded as 3151.017.

In the case of `COc1ccc2c(c1)[C@]1(C[C@H]1c1ccc3c(Nc4nc(C(C)C)nc(N5CCOCC5)c4OC)n[nH]c3c1)C(=O)N2` [Example 85, (1R,2S)-5′-methoxy-2-(3-{[5-methoxy-6-(morpholin-4-yl)-2-(propan-2-yl)pyrimidin-4-yl]amino}-1H-indazol-6-yl)spiro[cyclopropane-1,3′-indol]-2′(1′H)-one], the “[Aurora A IC50 (nM)]/[PLK4 IC50 (nM)]” value in test [1] is 5554.974. The negative logarithm of the IC50 (pIC50) was 8.72 on human recombinant PLK4 and 6.97 in the test with CHP-134 cells. Moreover, the “[Aurora B IC50 (nM)]/[PLK4 IC50 (nM)]” value in test [2] is 3067.539.

With `COc1ccc2c(c1)[C@]1(C[C@H]1c1ccc3c(Nc4cc(C)ncc4OC)n[nH]c3c1)C(=O)N2` [Example 86, (1R,2S)-5′-methoxy-2-{3-[(5-methoxy-2-methylpyridin-4-yl)amino]-1H-indazol-6-yl}spiro[cyclopropane-1,3′-indol]-2′(1′H)-one], the “[Aurora A IC50 (nM)]/[PLK4 IC50 (nM)]” value in test [1] was determined as 1414.623. In addition, the negative-log IC50 (pIC50) is 7.67 on human recombinant PLK4 and 6.34 with CHP-134 cells. In addition, the “[Aurora B IC50 (nM)]/[PLK4 IC50 (nM)]” value in test [2] was found to be 669.3396.
